Measurements from ChEMBL document CHEMBL1201862, “PubChem BioAssay data set” (2004).
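Assay format: 96-well plates, 48-hour exposure. At the GI50, growth is halved.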 Activity calls are given as the source filed them. Cut-off read from the data, not from the text of the source: active = GI50 up to about 1.1 µM and inactive = higher.

Tests used:
Test in all cases: inhibition of tumour cell growth, NCI panel, 48 h
[1] = tested on: DLD-1
[2] = tested on: M19-MEL
[3] = tested on: SNB-78
[4] = tested on: KM-20L2
[5] = tested on: DMS-114
[6] = tested on: XF498
[7] = tested on: LXFL 529
[8] = tested on: RXF 631
[9] = tested on: HOP-18

Row | Compound | GI50 [1] | GI50 [2] | GI50 [3] | GI50 [4] | GI50 [5] | GI50 [6] | GI50 [7] | GI50 [8] | GI50 [9]
1 | O=C(/C=C/c1ccccc1O)c1ccccc1O | > 100 µM (inactive) | > 100 µM (inactive) | > 100 µM (inactive) | > 100 µM (inactive) | 16.7 µM (inactive) |  |  |  | 
2 | COC(=O)C[C@H]1CCC2(OCCO2)[C@]1(C)C(=O)OC |  | > 100 µM (inactive) | > 100 µM (inactive) |  | > 100 µM (inactive) | > 100 µM (inactive) | > 100 µM (inactive) | > 100 µM (inactive) | 
3 | CN(C)CCC(=O)/C=C\c1ccccc1 | 15.8 µM (inactive) | 19.7 µM (inactive) | 15.5 µM (inactive) | 30.6 µM (inactive) | 18.2 µM (inactive) | 14.9 µM (inactive) | 13.5 µM (inactive) | 18.1 µM (inactive) | 22.6 µM (inactive)
4 | CC(C)(CN1CCCCC1)C(=O)/C=C/c1ccc(Br)cc1 | 3.01 µM (inactive) | 14.8 µM (inactive) | 8.07 µM (inactive) | 2.49 µM (inactive) | 1.47 µM (inactive) | 2.05 µM (inactive) | 1.81 µM (inactive) |  | 2.47 µM (inactive)
5 | COc1ccc([C@@H]2CC(=O)NCCCCNCCCN2)cc1 | > 100 µM (inactive) | > 100 µM (inactive) | > 100 µM (inactive) | > 100 µM (inactive) | > 100 µM (inactive) | > 100 µM (inactive) | > 100 µM (inactive) |  | > 100 µM (inactive)
6 | CC1(C)OC2C(CCP(=O)(O)O)OC(c3nc(C(N)=O)cs3)C2O1 (stereo unspecified) | > 100 µM (inactive) | > 100 µM (inactive) |  | > 100 µM (inactive) | > 100 µM (inactive) |  | > 100 µM (inactive) | > 100 µM (inactive) | > 100 µM (inactive)
7 | C[C@]12CC[C@H](OC(=O)Cc3ccc(N(CCCl)CCCl)cc3)CC1CC[C@@H]1C2CC[C@]2(C)NC(=O)CCC12 (stereo partly specified) | 16.3 µM (inactive) | 14.3 µM (inactive) | 14.1 µM (inactive) | 5.58 µM (inactive) | 6.31 µM (inactive) | 13.6 µM (inactive) | 8.3 µM (inactive) | 16 µM (inactive) | 16.7 µM (inactive)
8 | CCCCCCCCCCCCCC(=O)OCC1OC(n2cc(F)c(=O)[nH]c2=O)C(N)C(OC(=O)CCCCCCCCCCCCC)C1O (stereo unspecified) |  | > 100 µM (inactive) | > 100 µM (inactive) | > 100 µM (inactive) | > 100 µM (inactive) |  | > 100 µM (inactive) |  | 
9 | CC1=NN(C(=O)CC(=O)N(C(=O)c2ccccc2Cl)c2ccc(C)cc2)C(=O)C1/N=N/c1ccc([N+](=O)[O-])cc1 (stereo unspecified) | > 45.9 µM (inactive) |  | 57.5 µM (inactive) | > 55.6 µM (inactive) | > 42.8 µM (inactive) | > 100 µM (inactive) | 49.4 µM (inactive) |  | > 62.8 µM (inactive)
10 | O=C(Cc1ccccc1)NN1C(=O)C(Cl)C1c1cc(Br)ccc1O (stereo unspecified) | 3.33 µM (inactive) | 4.62 µM (inactive) | 8 µM (inactive) | 9.64 µM (inactive) | 2.23 µM (inactive) | 7.76 µM (inactive) | 5.68 µM (inactive) |  | 5.01 µM (inactive)
11 | Cc1nc2sccn2c1C(=O)N/N=C1\SCC(=O)N1C | > 100 µM (inactive) | > 100 µM (inactive) |  | > 100 µM (inactive) | > 100 µM (inactive) | > 100 µM (inactive) | > 100 µM (inactive) | > 100 µM (inactive) | 26.3 µM (inactive)
12 | O=C(/C=C/c1ccccc1Cl)c1cccc2ccccc12 | 8.51 µM (inactive) | 11 µM (inactive) | 20.3 µM (inactive) | 7.06 µM (inactive) | 4.46 µM (inactive) |  | 3.06 µM (inactive) |  | 16.1 µM (inactive)
13 | Cc1cc(Cl)cc2c1NC(=O)C2(O)CC(=O)c1ccc(F)cc1 (stereo unspecified) | 96.8 µM (inactive) | 5.41 µM (inactive) | 31.4 µM (inactive) | > 100 µM (inactive) |  | 32.1 µM (inactive) |  |  | 11.3 µM (inactive)
14 | O=C1CC2CCCC23CC2(CCN13)OCCO2 (stereo unspecified) | > 100 µM (inactive) | > 100 µM (inactive) | > 100 µM (inactive) | > 100 µM (inactive) | > 100 µM (inactive) | > 100 µM (inactive) | > 100 µM (inactive) | > 100 µM (inactive) | > 100 µM (inactive)
15 | COC(=O)[C@@H](C)[C@H]1CC[C@@](C)(CCC2=C(C)CC3C=C(C)CCC3C2(C)C)OO1 (stereo partly specified) | 0.962 µM (active) | 1.77 µM (inactive) | 2.23 µM (inactive) | 1.7 µM (inactive) | 1.81 µM (inactive) |  | 1.03 µM (active) | 2 µM (inactive) | 
16 | O=C(O)CCCSC(=O)Nc1ccc(/N=N/c2ccccc2)cc1 |  |  | > 100 µM (inactive) | > 100 µM (inactive) | > 100 µM (inactive) |  | > 100 µM (inactive) |  | 
17 | COc1ccc(C(=O)C2=NON3OC23C(=O)c2ccc(OC)cc2)cc1 (stereo unspecified) | 7.28 µM (inactive) | 16.5 µM (inactive) | 13 µM (inactive) | 19.1 µM (inactive) | 5.96 µM (inactive) | 10 µM (inactive) | 2.63 µM (inactive) | 15.1 µM (inactive) | 18.9 µM (inactive)
18 | Cc1cc(C)c2[s+]snc2c1 | > 100 µM (inactive) | > 100 µM (inactive) | 84.3 µM (inactive) | > 100 µM (inactive) |  | 30 µM (inactive) | 34.4 µM (inactive) | 96.6 µM (inactive) | 44.8 µM (inactive)
19 | N#CC(NNC(=O)Cc1ccccc1)c1ccccc1O (stereo unspecified) | 47 µM (inactive) | 7.96 µM (inactive) | 80.5 µM (inactive) |  |  |  | 15.2 µM (inactive) |  | 13.2 µM (inactive)
20 | Oc1ccccc1-c1cnnc(-c2ccccc2O)c1 | 30.6 µM (inactive) | 27.4 µM (inactive) | 33.3 µM (inactive) | 43.5 µM (inactive) | 15 µM (inactive) | 16.2 µM (inactive) | 21.5 µM (inactive) |  | 22.1 µM (inactive)
21 | CCOC1=C2C(C)(CCC3[C@@]4(C)C=CC(=O)C(C)(C)C4CC(O)[C@@]23C)C(c2ccoc2)C1=O (stereo partly specified) | 11.4 µM (inactive) | 18.9 µM (inactive) | 38.5 µM (inactive) | 17.1 µM (inactive) | 15.6 µM (inactive) | > 10 µM (inactive) |  | 17.9 µM (inactive) | 33.7 µM (inactive)
22 | COc1ccc(C(=O)C#Cc2cnc(O)nc2O)cc1 | 6.32 µM (inactive) | 8.93 µM (inactive) | 16.1 µM (inactive) | 9.86 µM (inactive) | 18.7 µM (inactive) |  | 3.36 µM (inactive) | 8.89 µM (inactive) | 24.5 µM (inactive)
23 | COc1ccc(CCc2cc(OC)cc(OC)c2)cc1 | 23.1 µM (inactive) | 25.3 µM (inactive) | 51.4 µM (inactive) | 13.6 µM (inactive) | 3.9 µM (inactive) | 16.7 µM (inactive) | 32.9 µM (inactive) | 13.7 µM (inactive) | > 32.4 µM (inactive)
24 | CC[C@@]1(O)C(=O)OCc2c1cc1n(c2=O)Cc2cc3c(OC)cccc3nc2-1 | 0.27 µM (active) | 0.056 µM (active) |  | 0.0622 µM (active) | < 0.01 µM (active) | 0.0942 µM (active) | 0.492 µM (active) | 0.0628 µM (active) | 0.0425 µM (active)
